Data from US20230295162A1 (EÖTVÖS LORÁND TUDOMÁNYEGYETEM, priority 2020, published 2023).
Read-outs that look alike come from different tables or passages of the source. Values belong to the molecule of their own block, whether it stands above or below them.

Assays:
[1] = tested on: Panc-1 human cell line; assay: Cytotoxicity on Panc-1, xCELLigence SP, IC50 after 24 h, 48 h, 72 h and 96 h (Example 22)
[2] = tested on: PANC-1 (human pancreatic carcinoma) cells; assay: Impedance-based viability assay (xCELLigence SP), long treatment; assay type: cell-based; details: 72 h, read-out: cytotoxicity expressed in IC50, PANC-1
Text: (Gibco®/Invitrogen Corporation, New York, NY, USA).
Data obtained from each experiment represent mathematical averages.

[3] = tested on: MDA-MB-231 (breast, adenocarcinoma) cells; assay: Cell viability assay, CellTiter-Glo (Example 21); assay type: cell-based, human; details: 72 h treatment
Protocol: (§1) Effect of the selected compounds on cancer cell viability was measured via CellTiter-Glo® luminescent cell viability assay (Promega, Madison, WI, USA) according to the manufacturer's instructions. Cells were plated onto a flat-bottomed, white 96 well plate (BRANDplates®, cat. no.: 781965). Density of the seeded cells was optimized based on their size and growth rate, as the follows: Panc-1:750 cells/well; DU 145, PC-3, Capan-1, MIA PaCa-2, SCC-25, FaDu and EBC-1: 1000 cells/well; LNCaP, Detroit 562, MDA-MB-231 and MDA-MB-453 1500 cells/well. […] After the treatment, the luminescence signal was recorded using a microplate reader (BioTek Synergy 2 Multi-Mode Reader, BioTek, Winooski, VT, USA). Dose-response curves were generated by GraphPad Prism 8.4.2. software using a non-linear regression model (variable slope, four parameters), (see FIGS. 12-51).

[4] = tested on: MDA-MB-453 (breast, carcinoma) cells; assay: Cell viability assay, CellTiter-Glo (Example 21); assay type: cell-based, human; details: 72 h treatment
Protocol: as §1

[5] = tested on: MIA PaCa-2 (pancreas, carcinoma) cells; assay: Cell viability assay, CellTiter-Glo (Example 21); assay type: cell-based, human; details: 72 h treatment
Protocol: as §1

[6] = tested on: Panc-1 (pancreas, carcinoma) cells; assay: Cell viability assay, CellTiter-Glo (Example 21); assay type: cell-based, human; details: 72 h treatment
Protocol: as §1

[7] = tested on: FaDu (pharynx, squamous cell carcinoma) cells; assay: Cell viability assay, CellTiter-Glo (Example 21); assay type: cell-based, human; details: 72 h treatment
Protocol: as §1

[8] = tested on: Detroit 562 (pharynx, carcinoma) cells; assay: Cell viability assay, CellTiter-Glo (Example 21); assay type: cell-based, human; details: 72 h treatment
Protocol: as §1

[9] = tested on: Capan-1 (pancreas, adenocarcinoma) cells; assay: Cell viability assay, CellTiter-Glo (Example 21); assay type: cell-based, human; details: 72 h treatment
Protocol: as §1

[10] = tested on: SCC-25 (tongue, squamous cell carcinoma) cells; assay: Cell viability assay, CellTiter-Glo (Example 21); assay type: cell-based, human; details: 72 h treatment
Protocol: as §1

[11] = tested on: EBC-1 (lung, squamous cell carcinoma) cells; assay: Cell viability assay, CellTiter-Glo (Example 21); assay type: cell-based, human; details: 72 h treatment
Protocol: as §1

[12] = tested on: DU 145 (prostate, carcinoma) cells; assay: Cell viability assay, CellTiter-Glo (Example 21); assay type: cell-based, human; details: 72 h
Protocol: as §1

[13] = tested on: LNCaP (prostate, carcinoma) cells; assay: Cell viability assay, CellTiter-Glo (Example 21); assay type: cell-based, human; details: 72 h
Protocol: as §1

[14] = tested on: PC-3 (prostate, adenocarcinoma) cells; assay: Cell viability assay, CellTiter-Glo (Example 21); assay type: cell-based, human; details: 72 h treatment
Protocol: as §1

[15] = tested on: EBC-1 lung cancer cell line; assay: High-throughput screening, CellTiter-Glo cell viability assay at 100 nM; assay type: cell-based, human; details: Homo sapiens, EBC-1, HTS, compounds at 100 nM, 72 h, read-out: cytotoxicity expressed in IC50, EBC-1 (results of High throughput screening)
Protocol: (§2) EBC-1 (obtained from JRCB, https://cellbank.nibiohn.go.jp/english/) and H2228 (obtained from ATCC https://www.lgcstandards-atcc.org/) cell lines were maintained according to the instructions provided by JRCB and ATCC in a 5% CO2 humidified incubator maintained at 37° C. temperature. Effect of compounds on cell viability was measured via CellTiter-Glo® luminescent cell viability assay (Promega, Madison, WI, USA). Cells were plated at 1000 cells/well onto a flat-bottomed, white 96 well plate (BRANDplates, cat. no.: 781965). After 24 h, cells were treated for 72 h with the compounds at 100 nM concentration. After the treatment, medium was removed and CellTiter-Glo® reagent was added. Untreated cells were used as control. The luminescence signal was recorded using a microplate reader (BioTek Synergy 2 Multi-Mode Reader, BioTek, Winooski, VT, USA). Cell viability data (% of untreated control cells) was evaluated with Microsoft Excel.

[16] = tested on: H2228 lung cancer cell line; assay: as above; assay type: cell-based, human; details: Homo sapiens, NCI-H2228, HTS, compounds at 100 nM, 72 h, read-out: cytotoxicity expressed in IC50, H2228 (results of High throughput screening)
Protocol: as §2

[17] = tested on: H2228 cell line; assay: Additional in vitro IC50 tests (Table 3); assay type: cell-based; details: Homo sapiens, NCI-H2228
Protocol: (§3) Cell lines were maintained according to the instructions provided by ATCC (https://www.lgcstandards-atcc.org/) in a 5% CO2 humidified incubator maintained at 37° C. temperature. Effects of compounds on cell viability were measured via CellTiter-Glo® luminescent cell viability assay (Promega, Madison, WI, USA) Cells were plated at 1000 cells/well onto a flat-bottomed, white 96 well plate (BRANDplates, cat. no.: 781965). […] After the treatment, medium was removed and CellTiter-Glo® reagent was added. The luminescence signal was recorded using a microplate reader (BioTek Synergy 2 Multi-Mode Reader, BioTek, Winooski, VT, USA).
(§4) Cell viability data (% of untreated control cells) was evaluated with Microsoft Excel. Dose-response curves (using a non-linear regression model, log (inhibitor) vs response, variable slope) were generated and IC50 values were determined using Graph Pad Prism 5.02 software (GraphPad Software, San Diego, CA, USA).

[18] = tested on: Detroit 562 cell line; assay: Additional in vitro IC50 tests (Table 3); assay type: cell-based; details: Homo sapiens
Protocol: as §3, §4

[19] = tested on: EBC-1 cell line; assay: Additional in vitro IC50 tests (Table 3); assay type: cell-based; details: Homo sapiens
Protocol: as §3, §4

[20] = tested on: Fadu cell line; assay: Additional in vitro IC50 tests (Table 3); assay type: cell-based; details: Homo sapiens
Protocol: as §3, §4

[21] = tested on: SCC-25 cell line; assay: Additional in vitro IC50 tests (Table 3); assay type: cell-based; details: Homo sapiens
Protocol: as §3, §4

SMILES: O=C1C2=C(CCN(Cc3cccc(F)c3)C2)N2CCN=C2N1Cc1ccc(F)cc1 [I/6, reference compound]
IC50 ([1]; PANC-1, 72 h, read-out: IC50 (72 h) [nM]): 126 ± 5.96 nM
IC50 ([1]; PANC-1, 96 h, read-out: IC50 (96 h) [nM]): 75.5 ± 6.76 nM
IC50 [2]: < 100 nM
MDA-MB-231 (breast, adenocarcinoma) cell viability (% of control) ([3]; 3.7 nM): 100.5 ± 5.4 % of control
MDA-MB-231 (breast, adenocarcinoma) cell viability (% of control) ([3]; 11.1 nM): 99.4 ± 4.1 % of control
MDA-MB-231 (breast, adenocarcinoma) cell viability (% of control) ([3]; 100 nM): 57.7 ± 3.8 % of control
MDA-MB-231 (breast, adenocarcinoma) cell viability (% of control) ([3]; 300 nM): 57.4 ± 1.7 % of control
MDA-MB-453 (breast, carcinoma) cell viability (% of control) ([4]; 3.7 nM): 113.6 ± 9.8 % of control
MDA-MB-453 (breast, carcinoma) cell viability (% of control) ([4]; 11.1 nM): 103.7 ± 10.4 % of control
MDA-MB-453 (breast, carcinoma) cell viability (% of control) ([4]; 100 nM): 33.9 ± 1.3 % of control
MDA-MB-453 (breast, carcinoma) cell viability (% of control) ([4]; 300 nM): 32.0 ± 1.1 % of control
MIA PaCa-2 (pancreas, carcinoma) cell viability (% of control) ([5]; 3.7 nM): 101.6 ± 10.8 % of control
MIA PaCa-2 (pancreas, carcinoma) cell viability (% of control) ([5]; 11.1 nM): 110.7 ± 6.4 % of control
MIA PaCa-2 (pancreas, carcinoma) cell viability (% of control) ([5]; 100 nM): 21.6 ± 9.1 % of control
MIA PaCa-2 (pancreas, carcinoma) cell viability (% of control) ([5]; 300 nM): 19.5 ± 7.5 % of control
Panc-1 (pancreas, carcinoma) cell viability (% of control) ([6]; 3.7 nM): 107.8 ± 16.0 % of control
Panc-1 (pancreas, carcinoma) cell viability (% of control) ([6]; 11.1 nM): 109.1 ± 4.2 % of control
Panc-1 (pancreas, carcinoma) cell viability (% of control) ([6]; 100 nM): 57.1 ± 0.1 % of control
Panc-1 (pancreas, carcinoma) cell viability (% of control) ([6]; 300 nM): 57.2 ± 3.2 % of control
FaDu (pharynx, squamous cell carcinoma) cell viability (% of control) ([7]; 3.7 nM): 97.9 ± 3.9 % of control
FaDu (pharynx, squamous cell carcinoma) cell viability (% of control) ([7]; 11.1 nM): 97.8 ± 5.2 % of control
FaDu (pharynx, squamous cell carcinoma) cell viability (% of control) ([7]; 100 nM): 27.3 ± 5.2 % of control
FaDu (pharynx, squamous cell carcinoma) cell viability (% of control) ([7]; 300 nM): 25.2 ± 4.6 % of control
Detroit 562 (pharynx, carcinoma) cell viability (% of control) ([8]; 3.7 nM): 99.8 ± 6.4 % of control
Detroit 562 (pharynx, carcinoma) cell viability (% of control) ([8]; 11.1 nM): 50.9 ± 15.2 % of control
Detroit 562 (pharynx, carcinoma) cell viability (% of control) ([8]; 100 nM): 31.6 ± 2.1 % of control
Detroit 562 (pharynx, carcinoma) cell viability (% of control) ([8]; 300 nM): 33.0 ± 3.4 % of control
Capan-1 (pancreas, adenocarcinoma) cell viability (% of control) ([9]; 3.7 nM): 105.9 ± 7.8 % of control
Capan-1 (pancreas, adenocarcinoma) cell viability (% of control) ([9]; 11.1 nM): 106.0 ± 8.0 % of control
Capan-1 (pancreas, adenocarcinoma) cell viability (% of control) ([9]; 100 nM): 40.1 ± 3.7 % of control
Capan-1 (pancreas, adenocarcinoma) cell viability (% of control) ([9]; 300 nM): 37.4 ± 3.5 % of control
SCC-25 (tongue, squamous cell carcinoma) cell viability (% of control) ([10]; 3.7 nM): 101.8 ± 4.3 % of control
SCC-25 (tongue, squamous cell carcinoma) cell viability (% of control) ([10]; 11.1 nM): 96.2 ± 4.8 % of control
SCC-25 (tongue, squamous cell carcinoma) cell viability (% of control) ([10]; 100 nM): 42.5 ± 1.8 % of control
SCC-25 (tongue, squamous cell carcinoma) cell viability (% of control) ([10]; 300 nM): 41.5 ± 3.1 % of control
EBC-1 (lung, squamous cell carcinoma) cell viability (% of control) ([11]; 3.7 nM): 101.0 ± 19.5 % of control
EBC-1 (lung, squamous cell carcinoma) cell viability (% of control) ([11]; 11.1 nM): 101.7 ± 3.3 % of control
EBC-1 (lung, squamous cell carcinoma) cell viability (% of control) ([11]; 100 nM): 25.1 ± 0.3 % of control
EBC-1 (lung, squamous cell carcinoma) cell viability (% of control) ([11]; 300 nM): 24.1 ± 2.4 % of control
DU 145 cell viability ([12]; 3.7 nM): 96.8 ± 3.7 % of control
DU 145 cell viability ([12]; 11.1 nM): 93.4 ± 2.2 % of control
DU 145 cell viability ([12]; 100 nM): 8.0 ± 1.4 % of control
DU 145 cell viability ([12]; 300 nM): 7.9 ± 1.6 % of control
LNCaP cell viability ([13]; 3.7 nM): 101.8 ± 5.6 % of control
LNCaP cell viability ([13]; 11.1 nM): 97.9 ± 7.3 % of control
LNCaP cell viability ([13]; 100 nM): 15.4 ± 2.0 % of control
LNCaP cell viability ([13]; 300 nM): 14.4 ± 0.7 % of control
PC-3 (prostate, adenocarcinoma) cell viability (% of control) ([14]; 3.7 nM): 103.6 ± 14.4 % of control
PC-3 (prostate, adenocarcinoma) cell viability (% of control) ([14]; 11.1 nM): 108.7 ± 7.7 % of control
PC-3 (prostate, adenocarcinoma) cell viability (% of control) ([14]; 100 nM): 35.3 ± 0.5 % of control
PC-3 (prostate, adenocarcinoma) cell viability (% of control) ([14]; 300 nM): 34.1 ± 2.0 % of control
IC50 [15]: < 100 nM
IC50 [16]: < 100 nM

IC50 [17]: 269 nM
IC50 [18]: 103 nM
IC50 [19]: 288 nM
IC50 [20]: 290 nM
IC50 [21]: > 300 nM
melting point: 114.5 °C
SMILES: Nc1cccc(CN2C(=O)C3=C(CCN(Cc4cc(F)cc(F)c4)C3)N3CCN=C23)c1 [I/126, 4-(3-Aminobenzyl)-7-(3,5-difluorobenzyl)-2,4,6,7,8,9-hexahydroimidazo[1,2-a]pyrido[3,4-e]pyrimidin-5(1H)-one]
